Test results as given in the NIST ThermoML archive (doi:10.1016/j.jct.2007.09.001).
Numbers after ± are expanded uncertainties.

Settings: 298.15 K, Calvet calorimetry with correction to 298 K for gas heat capacity

Row | molar enthalpy of sublimation (Crystal) | molar enthalpy of vaporization (Liquid) | SMILES
1 | 14.7 ± 0.765 kcal/mol | – | Cc1cc(C)n(C)n1 [1,3,5-trimethylpyrazole]
2 | – | 15.8 ± 0.956 kcal/mol | Cc1cc[nH]n1 [3-methylpyrazole]
